# Reference: paper PMC11320730, “5-Methoxy-2-aminoindane Reverses Diet-Induced Obesity and Improves Metabolic Parameters in Mice: A Potential New Class of Antiobesity Therapeutics” (ACS Pharmacology & Translational Science, 2024)
# Key:
# [1] = system: DIO C57BL/6 mice; experiment: Multiparameter metabolic assessment in DIO mice; format: in vivo
# Experimental: (§1) Male C57BL/6 mice were used to establish DIO by feeding them a high-fat diet (HFD; 60% cal/L fat, 20% cal/L protein, and 20% cal/L carbohydrates; Research Diet, D12492) for 18 weeks. After this period, mice were treated with either vehicle (sterile water, N = 8) or MEAI (N = 11) daily for 28 days by gavage at a dose of 40 mg/kg/day. Age-matched control mice (N = 10) on a standard diet (STD; 14% kcal fat, 24% kcal protein, 62% kcal carbohydrates; NIH-31 rodent diet) received vehicle daily. The body weight of all mice was monitored daily, and total body fat and lean mass were determined by EchoMRI-100H (Echo Medical Systems LLC, Houston, Texas, USA). On day 29, at the end of the experimental period, mice were euthanized by a cervical dislocation under anesthesia. The kidneys, brain, liver, and fat pads were removed and weighed, and samples were either snap-frozen or fixed in buffered 4% formalin. Trunk blood was collected to determine the biochemical parameters.
# The metabolic profiles and food and water intakes of the mice were assessed using the Promethion High-Definition Behavioral Phenotyping System (Sable Instruments, Inc., Las Vegas, Nevada, USA). MetaScreen software version 2.2.18.0 was used for data acquisition and instrument control. Raw data were processed using ExpeData version 1.8.4 with an analysis script detailing all aspects of the data transformation. Mice with free access to food and water, housed at temperatures of (22–23 °C), were subjected to a standard 12 h light/12 h dark cycle, which consisted of a 48 h acclimation period followed by 24 h of sampling after dosing. Respiratory gases were measured using the GA-3 gas analyzer (Sable Systems, Inc., Las Vegas, Nevada, USA) employing a pull-mode negative-pressure system. Airflow was measured and controlled by an FR-8 instrument (Sable Systems, Inc., Las Vegas, Nevada, USA) at a flow rate of 2000 mL/min. Water vapor was continuously measured, and its dilution effect on O2 and CO2 was mathematically compensated. Respiratory exchange rate (RER) was calculated as the ratio of CO2 produced (VCO2) to O2 consumed (VO2) using eq 1): [drawing 1] 1
# Total energy expenditure (TEE) was calculated using VO2 and RER, according to eq 2: [drawing 2] 2
# Fat oxidation (FO) and carbohydrate oxidation (CHO) were calculated using VO2 and VCO2 based on eqs 3 and 4, respectively: [drawing 3] 3 [drawing 4] 4
# Energy balance and energy flux were derived from eqs 5 and 6: [drawing 5] 5 [drawing 6] 6
# The thermic effect of food for each animal was calculated based on its individual food intake in a period of 24 h according to the specific percentage of carbohydrates, fats, and proteins in the consumed diet.
# The basal energy expenditure was calculated based on the mean energy expenditure (EE) during the lowest EE in a 30 min period, in kilocalories per hour (kcal/h). This calculation represented the animal’s basal metabolic rate.
# [2] = target: T1, 5-HT2B (Homo sapiens, UniProt P41595); experiment: Ligand binding assay (Eurofins); set-up: Eurofins (contract screening service); settings: read-out: inhibitory activity (% inhibition of the binding of a specific ligand)
# Experimental: (§2) MEAI at 10 μM was tested in ligand binding assays at Eurofins Inc., as described previously.[20] Compound binding was calculated as a % inhibition of the binding of a ligand specific for each target. Results showing an inhibition or stimulation higher than 50% are considered to represent significant effects of MEAI. In each experiment, and if applicable, the respective reference compound was tested concurrently with MEAI and the data were compared with historical values determined at Eurofins. The experiment was accepted in accordance with the Eurofins validation Standard Operating Procedure.
# [3] = system: DIO C57BL/6 mice; experiment: Effect of MEAI on obesity: body weight and body composition (EchoMRI) in DIO mice; format: in vivo; settings: 28 days
# Experimental: as §1
# [4] = target: T2, MAO-A enzyme (Homo sapiens, UniProt P21397); experiment: Ligand binding assay (Eurofins); settings: read-out: inhibitory activity (% inhibition of the binding of a specific ligand)
# T2 construct: Eurofins (contract screening service)
# Experimental: as §2
# [5] = target: T3, 5-HT2A (Homo sapiens, UniProt P28223); experiment: Ligand binding assay (Eurofins); settings: read-out: inhibitory activity (% inhibition of the binding of a specific ligand)
# T3 construct: Eurofins (contract screening service)
# Experimental: as §2
# [6] = target: T4, dopamine D2 receptor (Homo sapiens, UniProt P14416); experiment: Ligand binding assay (Eurofins); settings: read-out: inhibitory activity (% inhibition of the binding of a specific ligand)
# T4 construct: Eurofins (contract screening service)
# Experimental: as §2
# [7] = target: T5, 5-HT1A (Homo sapiens, UniProt P08908); experiment: Ligand binding assay (Eurofins); settings: read-out: inhibitory activity (% inhibition of the binding of a specific ligand)
# T5 construct: Eurofins (contract screening service)
# Experimental: as §2
# [8] = system: liver of DIO C57BL/6 mice; experiment: Liver weight, hepatic triglyceride and cholesterol contents, histopathology and Oil Red O staining in DIO mice; format: in vivo; settings: 40 mg/kg/day
# Experimental: as §1
# At the time of animal sacrifice, liver tissue was extracted following the established protocol described previously.[19] The extracted liver tissue was then analyzed for cholesterol and triglyceride contents using a Cobas C-111 chemistry analyzer (Roche, Switzerland).
# Paraffin-embedded liver sections (5 μm) from five animals per group were processed for hematoxylin–eosin staining. Liver images were captured using a Zeiss Axio Scope A1 light microscope (Carl Zeiss AG, Jena, Germany) equipped with a Zeiss AxioCam ICc 5 color camera. Ten random 40× fields of view were taken from each animal to obtain representative images.
# Liver cryosections (8 μm) were stained with Oil Red O (Cat# ab150678; Abcam, Cambridge, UK) following the manufacturer’s protocol. Images were acquired as described above. For quantitative analysis of Oil Red O staining, the area of lipid droplets in the liver cryosections was measured using ImageJ software.
# [9] = target: T1, 5-HT2B; experiment: 5-HT2B calcium influx assay (agonist) in BA/F3 cells; format: cell-based; set-up: host or cells: BA/F3 cells
# [10] = system: MAO-A; set-up: method as in PMID 29458138; settings: cited from earlier work
# [11] = DIO mice, 40 mg/kg/day, vs HFD vehicle
# T1 sequence (P41595 whole entry): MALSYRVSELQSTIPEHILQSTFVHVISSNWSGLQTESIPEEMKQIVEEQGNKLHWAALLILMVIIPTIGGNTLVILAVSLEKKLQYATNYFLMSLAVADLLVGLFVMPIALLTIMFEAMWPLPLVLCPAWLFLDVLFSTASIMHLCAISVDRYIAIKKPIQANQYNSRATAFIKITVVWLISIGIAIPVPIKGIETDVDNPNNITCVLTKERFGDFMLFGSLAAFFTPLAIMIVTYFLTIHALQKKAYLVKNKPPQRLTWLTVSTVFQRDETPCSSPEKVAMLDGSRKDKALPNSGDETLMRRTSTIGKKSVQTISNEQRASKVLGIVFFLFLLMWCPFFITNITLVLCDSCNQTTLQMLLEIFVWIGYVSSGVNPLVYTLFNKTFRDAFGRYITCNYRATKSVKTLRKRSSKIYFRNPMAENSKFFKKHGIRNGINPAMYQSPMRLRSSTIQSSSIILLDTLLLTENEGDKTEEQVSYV
# T2 sequence (P21397 whole entry, species assumed): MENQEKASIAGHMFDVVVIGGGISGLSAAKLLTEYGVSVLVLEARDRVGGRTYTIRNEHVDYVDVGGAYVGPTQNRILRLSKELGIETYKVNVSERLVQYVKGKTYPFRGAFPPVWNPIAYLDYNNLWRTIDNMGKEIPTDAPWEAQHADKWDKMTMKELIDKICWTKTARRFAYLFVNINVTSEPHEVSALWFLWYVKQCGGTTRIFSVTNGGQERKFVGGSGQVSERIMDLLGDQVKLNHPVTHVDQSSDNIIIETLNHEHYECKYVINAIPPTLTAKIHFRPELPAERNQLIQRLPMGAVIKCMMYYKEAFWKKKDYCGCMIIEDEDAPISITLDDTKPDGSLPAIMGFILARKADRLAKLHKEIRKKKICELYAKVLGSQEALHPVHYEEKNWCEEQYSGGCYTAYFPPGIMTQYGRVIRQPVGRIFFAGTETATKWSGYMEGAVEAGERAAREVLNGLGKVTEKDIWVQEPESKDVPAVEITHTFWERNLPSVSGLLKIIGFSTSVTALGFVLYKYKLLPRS
# T3 sequence (P28223 whole entry): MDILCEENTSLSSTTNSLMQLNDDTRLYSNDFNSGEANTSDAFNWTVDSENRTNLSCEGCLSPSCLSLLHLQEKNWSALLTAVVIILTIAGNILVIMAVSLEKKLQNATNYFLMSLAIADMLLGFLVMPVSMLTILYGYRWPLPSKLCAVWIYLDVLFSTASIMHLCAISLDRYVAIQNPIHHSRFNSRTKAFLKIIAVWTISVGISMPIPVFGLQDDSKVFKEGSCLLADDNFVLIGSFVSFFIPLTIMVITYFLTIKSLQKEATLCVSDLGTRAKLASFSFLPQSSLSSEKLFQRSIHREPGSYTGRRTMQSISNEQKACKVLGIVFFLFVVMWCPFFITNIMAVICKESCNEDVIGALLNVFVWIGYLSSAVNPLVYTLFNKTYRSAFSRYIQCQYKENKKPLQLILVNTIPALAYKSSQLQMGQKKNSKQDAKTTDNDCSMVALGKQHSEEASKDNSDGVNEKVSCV
# T5 sequence (P08908 whole entry, species assumed): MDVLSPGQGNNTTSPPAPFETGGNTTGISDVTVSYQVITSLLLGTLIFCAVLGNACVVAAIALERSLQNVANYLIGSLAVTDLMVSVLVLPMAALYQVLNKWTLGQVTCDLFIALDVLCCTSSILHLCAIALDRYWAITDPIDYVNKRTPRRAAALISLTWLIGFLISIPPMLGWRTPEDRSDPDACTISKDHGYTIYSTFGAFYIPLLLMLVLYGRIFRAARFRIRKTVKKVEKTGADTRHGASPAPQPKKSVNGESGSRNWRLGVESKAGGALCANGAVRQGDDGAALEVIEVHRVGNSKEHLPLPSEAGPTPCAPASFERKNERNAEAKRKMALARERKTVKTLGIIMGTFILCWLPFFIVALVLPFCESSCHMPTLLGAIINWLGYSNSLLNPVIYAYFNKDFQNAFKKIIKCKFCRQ
# T4 sequence (P14416 whole entry, species assumed): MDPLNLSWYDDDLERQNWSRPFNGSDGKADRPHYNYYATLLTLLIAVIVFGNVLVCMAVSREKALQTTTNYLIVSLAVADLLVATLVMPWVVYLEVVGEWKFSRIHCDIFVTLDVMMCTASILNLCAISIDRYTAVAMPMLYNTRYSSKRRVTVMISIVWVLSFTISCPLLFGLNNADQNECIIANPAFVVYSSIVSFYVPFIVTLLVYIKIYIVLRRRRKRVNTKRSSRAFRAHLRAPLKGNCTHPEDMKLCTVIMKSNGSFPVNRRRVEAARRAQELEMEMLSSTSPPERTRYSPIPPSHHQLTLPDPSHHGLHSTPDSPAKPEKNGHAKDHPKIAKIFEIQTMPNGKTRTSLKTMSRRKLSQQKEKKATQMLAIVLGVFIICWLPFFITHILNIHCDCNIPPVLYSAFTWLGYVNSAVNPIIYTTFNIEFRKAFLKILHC
compound,measurement,setting,value
"COc1ccc2c(c1)CC(N)C2.Cl (centres unmarked) [MEAI, 2,3-Dihydro-5-methoxy-1H-inden-2-amine hydrochloride]",basal energy expenditure,"[1]; DIO mice, 40 mg/kg/day",significantly boosted
same,cumulative TEE,"[1]; DIO mice, 40 mg/kg/day",increases
same,water consumption,"[1]; DIO mice, 40 mg/kg/day",did not exert any significant influence
same,total food intake over 24 h,"[1]; DIO mice, 40 mg/kg/day, across all groups",similar
same,overall energy balance,"[1]; DIO mice, 40 mg/kg/day, across the groups",no significant changes
same,thermodynamic (thermic) effect of food,"[1]; DIO mice, 40 mg/kg/day, between groups",remained unchanged
same,RER,"[1]; DIO mice, 40 mg/kg/day, in comparison to STD vehicle group",slightly decreased
same,differences in TEE by ANCOVA using lean mass as covariant,"[1]; DIO mice, 40 mg/kg/day, p = 0.0097 vs HFD vehicle",treatment-dependent
same,average energy expenditure,"[1]; DIO mice, 40 mg/kg/day, vs HFD and STD vehicle, light and dark phases",significant increase
same,CHO levels,[1]; [11],no direct effect of the drug itself observed
same,carbon dioxide production,[1]; [11],slightly increased
same,oxygen consumption,[1]; [11],slightly increased
same,overall rate of FO,"[1]; DIO mice, 40 mg/kg/day, vs HFD- and STD-vehicle groups",increase
same,energy flux,"[1]; DIO mice, 40 mg/kg/day, vs vehicle groups",significant increase
same,meal size (food intake per meal),"[1]; HFD-fed mice regardless of MEAI treatment (40 mg/kg/day), vs STD",significant reduction
same,inhibition at 10 µM,[2],> 50%
same,decrease in total body weight,"[3]; DIO mice, 40 mg/kg/day by gavage, compared to obese vehicle-treated group",~15%
same,adiposity associated with obesity,"[3]; DIO mice, 40 mg/kg/day",reduced
same,lean body mass ratio,"[3]; DIO mice, 40 mg/kg/day",maintaining
same,net lean mass,"[3]; DIO mice, 40 mg/kg/day",maintaining
same,overall fat mass,"[3]; DIO mice, 40 mg/kg/day",reducing
same,body weight,"[3]; HFD-fed (DIO) mice, 40 mg/kg/day by gavage",significantly reduced
same,inhibition at 10 µM,[4],> 50%
same,inhibition at 10 µM,[5],> 50%
same,inhibition at 10 µM,[6],> 50%
same,inhibition at 10 µM,[7],> 50%
same,Oil Red O staining of liver,"[8]; DIO mice, vs HFD vehicle",decrease
same,hepatic cholesterol levels,"[8]; DIO mice, vs HFD vehicle",trend toward a reduction
same,lipid vacuole numbers in liver,"[8]; DIO mice, vs HFD vehicle",reduced
same,liver triglycerides,"[8]; DIO mice, vs HFD vehicle",significant reductions
same,liver weight,"[8]; HFD-fed mice, 28 days",reduced
same,liver weight to body weight ratio,"[8]; HFD-fed mice, 28 days",normalized
same,Emax,"[9]; BaF3, read-out: maximum response, calcium flux (percent of control response to serotonin at 0.25 μM), cytosolic Ca2+ mobilization, agonist mode",18.6%
same,agonist activity at the 5-HT2B receptor,[9]; calcium flux,did not act as an agonist
same,binding inhibition,[10],unaffected
